From PubChem BioAssay (NCI)
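Step 1: Grow cells in 96-well plates. Step 2: Expose to compound for 48 hours at 5 concentrations. Step 3: Interpolate endpoints linearly; if unreached, use highest concentration. GI50 = concentration required for 50% inhibition of growth. TGI: concentration producing complete growth inhibition.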

What was measured:
Test in all cases: NCI tumour cell line growth inhibition, 48 h
786-0 renal = test system: 786-0 renal
ACHN renal = test system: ACHN renal
HOP-92 NSCLC = test system: HOP-92 NSCLC
K-562 leukemia = test system: K-562 leukemia
NCI-H226 lung = test system: NCI-H226 lung
NCI-H23 lung = test system: NCI-H23 lung
RPMI-8226 leukemia = test system: RPMI-8226 leukemia
RXF 393 renal = test system: RXF 393 renal
SF-268 CNS = test system: SF-268 CNS
U251 CNS = test system: U251 CNS

| SMILES | GI50 (786-0 renal) [µM] | TGI (786-0 renal) [µM] | GI50 (ACHN renal) [µM] | TGI (ACHN renal) [µM] | GI50 (HOP-92 NSCLC) [µM] | TGI (HOP-92 NSCLC) [µM] | GI50 (K-562 leukemia) [µM] | TGI (K-562 leukemia) [µM] | GI50 (NCI-H226 lung) [µM] | TGI (NCI-H226 lung) [µM] | GI50 (NCI-H23 lung) [µM] | TGI (NCI-H23 lung) [µM] | GI50 (RPMI-8226 leukemia) [µM] | TGI (RPMI-8226 leukemia) [µM] | GI50 (RXF 393 renal) [µM] | TGI (RXF 393 renal) [µM] | GI50 (SF-268 CNS) [µM] | TGI (SF-268 CNS) [µM] | GI50 (U251 CNS) [µM] | TGI (U251 CNS) [µM] |
| --- | --- | --- | --- | --- | --- | --- | --- | --- | --- | --- | --- | --- | --- | --- | --- | --- | --- | --- | --- | --- |
| CCC(=O)Sc1ccccc1C(=O)Nc1ccc(Cl)cc1 | 15 | 41.8 | 16.5 | 71.6 | 2.52 | 9.67 | 3.83 | > 100 | 10.4 | 54.8 | 6.43 | 39.2 | 4.32 | 29.3 | 28.7 | > 100 | 9.67 | 52.9 | 5.73 | 32.3 |
| COc1cc(OC)cc(N2CCC(c3c(N)nc(N)nc3Cl)CC2)c1 |  | > 100 |  | > 100 |  | > 100 |  | > 100 |  |  |  | > 100 |  | > 100 |  | > 100 |  | > 100 |  |  |
| COC(=O)c1ccc(CN2CCc3c([nH]c4ccccc34)C2CO)o1 (stereo not given) |  | > 10 |  |  |  | > 10 |  | > 10 |  |  |  | > 10 |  | > 10 |  | > 10 |  | > 10 |  |  |
| CCN(CC)c1ccc(NC(C(=O)c2ccccc2)c2ccccc2)cc1 (stereo not given) | 1.83 | 3.59 | 1.9 | 3.82 | 2.22 | 8.21 | 3.27 | 55.1 | 1.76 | 3.53 | 2.15 | 4.67 | 2.61 | 12.3 | 1.7 | 3.47 | 4.23 | 17.4 | 2.72 | 10 |
| COc1ccc(C2C3=C(NC(=O)C2C#N)c2ccc4ccccc4c2OCC3)cc1 (stereo not given) | 30.2 | 86.4 | 21.9 | 59.5 | 11.4 | 43.4 | > 100 | > 100 |  |  | 87.1 | > 100 | > 100 | > 100 | 16.3 | 48.9 | 23.3 | 76.2 | 23.6 | 54.2 |
| C=CCN1C(=O)CS/C1=N\NC(=O)c1c(C)nc2sccn12 |  | > 100 |  | > 100 |  | > 100 |  | > 100 |  | > 100 |  | > 100 |  | > 100 |  | > 100 |  | > 100 |  | > 100 |
| [Cu+2].[Cu+2].[O-]c1ccccc1C=Nc1ccccc1[O-].[O-]c1ccccc1C=Nc1ccccc1[O-] | 7.24 | 20.3 | 7.81 | 20.8 |  |  | 4.07 | 52.9 | 20.4 | 36.5 | 1.96 | 4.85 | 3.5 | 54.6 |  |  | 11.8 | 24.2 |  |  |
| Cc1ccc(NS(=O)(=O)c2ccc(-c3cnc(C4CC4)o3)cc2)cc1 | 6.4 | 21 | 4.43 | 18.4 | 2.14 | 13.2 | 0.519 | 16.3 | 7.37 | 24.5 | 4.1 | 17.9 | 2.82 | 12.6 | 2.36 | 10.7 | 6.19 | 21.3 | 4.18 | 17.5 |
| COc1nc(OC)c2c(=O)oc(-c3ccccc3)cc2n1 |  | > 100 |  | > 100 |  | > 100 |  | > 100 |  | > 100 |  | > 100 |  | > 100 |  | > 100 |  | > 100 |  | > 100 |
| CS(=O)(=O)C1S(=O)(=O)OCCOS1(=O)=O |  | > 100 |  | > 100 |  | > 100 |  | > 100 |  | > 100 |  | > 100 |  | > 100 |  | > 100 |  | > 100 |  | > 100 |
| CCOc1ccc(NC(=O)Nc2cc(C(C)C)ccc2C)cc1 | 2.64 | 6.72 | 4.37 | 14.7 | 1.83 | 7.54 | 21.4 | > 100 | 10.2 | 50.1 | 16.4 | 98.1 | 10.9 | > 65.8 | 1.64 | 4.9 | 4.36 | 14.7 | 5.89 | 17.8 |
| COc1ccc(-c2cc3c4c(nc5ccccc5c4c2)CC(c2cc(OC)c(OC)c(OC)c2)O3)cc1 (stereo not given) | 1.92 | 3.74 | 1.58 | 3.11 | 1.62 | 4.71 | 3.37 | > 100 | 1.71 | 3.89 | 3.75 | 18.5 | 3.66 | > 100 | 1.92 | 4.65 | 1.72 | 5.48 | 1.76 | 4.83 |
| O=C(O)CSc1n[nH]c(/C=C/c2ccccc2)n1 |  | > 100 |  | > 100 |  | > 100 |  | > 100 |  | > 100 |  | > 100 |  | > 100 |  | > 100 |  | > 100 |  | > 100 |
| CCCCN(CC)C(=O)C(=O)C1C(=O)Nc2ccccc2S1=O (stereo not given) |  | > 100 |  | > 100 |  | > 100 |  | > 100 |  | > 100 |  | > 100 |  | > 100 |  | > 100 |  | > 100 |  | > 100 |
| COC(=O)N1[C@H]2Cc3c(OC)c(C)c(OC)c(OC)c3[C@@H]1/C(=C\c1cc(OC)c(OC)c(C)c1OC)N(Cc1ccccc1)C2=O |  | > 100 |  | > 100 |  | > 100 |  | > 100 |  | 11.7 |  | > 100 |  | > 100 |  | > 100 |  | > 100 |  | > 100 |
| OCC(O)CC[CH2][Sn]([c]1ccccc1)([c]1ccccc1)[c]1ccccc1 (stereo not given) | 14.8 | 28.2 | 8.89 | 21 | 10.9 | 24 | 8.59 | 23.8 | 19 | 70.8 | 15.1 | 29.8 | 14.4 | 47.5 | 4.32 | 19.7 |  |  | 15.6 | 30.2 |
